Results published in US7708799B2, “Dithiocarbamates and phosphite formulations” (priority 2005, dated 2010).

Test system: Spores of the fungus Mycosphearella sp
Assay: Spore germination test on amended water agar plates
Assay type: cell-based
Conditions: agar amended with mancozeb alone at 100 ppm; 4×10^5 spores; 12 hours incubation
Description: The flowable Calcium formulation (named Calciphite) combination plus Mancozeb as described in the above example was tested for its ability to inhibit spore germination as compared to Mancozeb. Water agar plates were prepared and amended with the Calciphite/mancozeb combination (50 ppm) or mancozeb alone (100 ppm). Spores of the fungus Mycosphearella sp at a spore concentration of 4×10^5 were sprayed onto the surface of the plates and incubated for 12 hours after which the plates were assessed for germination.

How did the “% spore germination” value turn out when mancozeb was run?
The value was 81%.
